Values of other authors as cited in US11179353B1, “Composition and method for prevention and treatment of radiation dermatitis” (Rythera Therapeutics, Inc., priority 2020, dated 2021).

Assays:
radiation skin damage = conditions: retrospective analysis
irradiated breast tissue = conditions: topical

SMILES | dermato-cytoprotective effects (radiation skin damage) | improvement in the results of irradiated breast tissue (irradiated breast tissue)
NCCCNCCSP(=O)(O)O [amifostine] | significant dermato-cytoprotective effects | 
O=C1O[C@H]([C@@H](O)CO)C(O)=C1O [Vitamin C] |  | without improvement
